# Data as given in publication PMC12072147, “Antioxidant and Neuroprotective Properties of Selected Pyrrole-Containing Azomethine Compounds in Neurotoxicity Models In Vitro” (International Journal of Molecular Sciences, 2025).
# Columns and labels:
# SH-SY5Y cells [1] = assay: In vitro cytotoxicity in neuroblastoma cell line SH-SY5Y (MTT); type: cell-based; conditions: Homo sapiens, 24 h treatment, 0.1-500 µM, read-out: IC50 (cell viability)
# Description: (§1) The neuroblastoma cell line SH-SY5Y was acquired from Sigma-Aldrich (ACACC cell lines). They were cultured in Roswell Park Memorial Institute 1640 (RPMI) cell medium supplemented with 10% heat-inactivated fetal bovine serum (FBS) and 2 mM L-glutamine. The cells were maintained at 37 °C in an atmosphere containing 5% CO2 in a humidified incubator.
# SH-SY5Y cells were seeded in 96-well plates at a density of 2.5 × 10^4 cells/well. The plates were incubated for 24 h to ensure proper attachment. Cell viability assays were performed after treatment with the test compounds at concentrations of 0.1, 1, 5, 10, 50, 100, 250, and 500 μM, according to the protocol of Mosmann (1984). Each compound was tested in 6 wells. Following the treatment for 24 h, a solution of (3-(4,5-dimethylthiazol-2-yl)-2,5-diphenyltetrazolium bromide) MTT at a concentration of 5 mg/mL was prepared and briefly vortexed. The culture medium was aspirated and replaced with 100 μL of MTT solution in each well. The plates were then incubated for 3 h. After incubation, the formazan crystals were dissolved using 100 μL dimethylsulphoxide (DMSO), and the absorbance was measured at 570 nm (690 nm for the background absorbance) using a multiple reader Synergy 2 (BioTek Instruments, Inc., Highland Park, Winooski, VT, USA).
# [2] = system: isolated rat brain microsomes; assay: In vitro toxicity (prooxidant effect, MDA) on isolated rat brain microsomes; type: biochemical; conditions: 100 µM, vs untreated control microsomes
# Description: (§2) The brain was homogenized in 9 volumes of 0.1 M Tris buffer containing 0.1 mM dithiothreitol, 0.1 mM phenylmethylsulfonyl fluoride, 0.2 mM EDTA, 1.15% KCl, and 20% (v/v) glycerol (pH 7.4). The resulting homogenate was centrifuged twice at 17,000× g for 30 min. The supernatants from both centrifugation steps were combined and centrifuged twice at 100,000× g for 1 h. The pellet was then frozen in 0.1 M Tris buffer.
# (§3) After incubating the microsomes with the substances and toxic agent, the reaction was stopped by adding 0.5 mL of 20% trichloroacetic acid, followed by 0.5 mL of 0.67% thiobarbituric acid. The reaction formed a colored complex between the malondialdehyde produced and thiobarbituric acid. The amount of malondialdehyde (MDA) was measured spectrophotometrically at 535 nm, using a molar extinction coefficient of 1.56 × 10^5 M^−1 cm^−1 for the calculation.
# [3] = system: isolated rat brain microsomes; assay: Non-enzyme (Fe2+/AA) lipid peroxidation in isolated rat brain microsomes; type: biochemical; conditions: 100 µM compound co-incubated with Fe2+/AA, compared to the Fe2+/AA group
# Description: as §2
# Non-enzyme-induced lipid peroxidation was induced with 20 μM ferrous sulfate solution and 0.5 mM ascorbic acid solution [54].
# as §3
# [4] = system: isolated rat brain synaptosomes; assay: 6-OHDA-induced neurotoxicity in isolated rat brain synaptosomes; type: cell-based; conditions: for preserved GSH levels in synaptosomes / viability at 100 µM: 100 µM compound + 150 µM 6-OHDA; for preserved GSH levels in synaptosomes: compared to the 6-OHDA group; for viability at 100 µM: Rattus norvegicus, compared to 6-OHDA alone, read-out: preserved synaptosomal viability
# Description: Synaptosomes and mitochondria were isolated by subcellular fractionation using a Percoll gradient, following the method described by Tauplin et al. and Sims et al.. Brain homogenate was prepared and centrifuged at 1000× g for 5 min at 4 °C. The supernatants were collected and centrifuged again at 1000× g for 5 min at 4 °C. The supernatants from both centrifugations were combined and distributed into four tubes. These tubes were then centrifuged at 10,000× g for 20 min at 4 °C three times. The final two centrifugations were performed to purify the synaptosomes and mitochondria.
# The isolation process involves using a colloidal silicon solution, specifically Percoll. First, a 90% stock solution of Percoll is prepared. Next, Percoll solutions at concentrations of 16% and 10% are prepared, with 4 mL of each solution placed into six separate test tubes. To the precipitate from the final centrifugation step, 7.5% Percoll (derived from the 90% stock solution) is added. The tubes are then centrifuged at 15,000× g for 20 min at 4 °C. This procedure effectively isolates synaptosomes and mitochondria. After centrifugation, three distinct layers form in the tubes. The bottom layer contains mitochondria, the top layer contains lipids, and the middle layer—located at the 16% to 10% Percoll interface—contains synaptosomes. The corresponding layer from each tube is carefully removed using a glass Pasteur pipette and combined into one. Buffer B with glucose is then added to the mixture, which is centrifuged at 10,000 × g for 20 min at 4 °C, allowing the isolation buffer to be exchanged with the incubation buffer. After centrifugation, the pellet containing the synaptosomes is resuspended in Buffer B with glucose. Synaptosomes and mitochondria were incubated with the test substances at a concentration of 100 µM for 1 h.
# This in vitro model mimics the neurodegenerative processes primarily observed in Parkinson’s disease (PD). The metabolism of 6-OHDA produces reactive quinones (p-quinone), which, in turn, generate reactive oxygen species (ROS). These reactive metabolites and ROS cause damage to both pre- and post-synaptic membranes, ultimately leading to neuronal cell damage. In this study, synaptosomes were incubated with 6-OHDA (150 μM) for 1 h to establish the model.
# After a 1-h incubation with the substances and toxic agent, synaptosomes were centrifuged in a microcentrifuge at 15,000× g for 1 min. The pellet was gently mixed with Buffer B + glucose, and the supernatant containing 6-OHDA was discarded to prevent oxidation of 3-(4,5-dimethylthiazol-2-yl)-2,5-diphenyltetrazolium bromide, a tetrazole (MTT). The synaptosomes were centrifuged again at 15,000× g for 1 min. After the second wash, Buffer B + glucose was added to the pellet. Then, 60 µL of MTT solution was added to the “washed” synaptosomes. The plates were incubated with the MTT solution at 37 °C for 10 min. After incubation, the samples were centrifuged at 15,000× g for 2 min. The excess liquid was removed, and a DMSO solution was used to dissolve the formed formazan crystals. The amount of formazan was then measured spectrophotometrically at λ = 580 nm.
# Following protein precipitation with trichloroacetic acid, the thiol groups in the supernatant were measured using DTNB, which produces a yellow-colored compound that absorbs light at λ = 412 nm. After incubation, synaptosomes were centrifuged at 4000× g for 3 min. The supernatant was removed, and the pellet was collected for GSH determination. The pellet was treated with 5% trichloroacetic acid and left on ice for 10 min. It was then centrifuged at 8000× g for 10 min at 2 °C. The supernatant was collected for GSH determination and frozen at −20 °C. Immediately before measurement, the samples were neutralized with 5N NaOH [50].
# SH-SY5Y cells [5] = assay: H2O2-induced oxidative stress model in neuroblastoma SH-SY5Y cells; type: cell-based, human; conditions: H2O2 1 mM 10 min
# Description: as §1
# In the oxidative stress model, SH-SY5Y cells (3.5 × 10^4 cells/well) were exposed to 1 mM H2O2 for 10 min. The cells were pre-treated for 1.5 h with the test compounds (0.1, 1, 5, 10, 20, and 50 µM). Subsequently, a H2O2 solution was added. Cell viability was assessed after 24 h by the MTT-dye reduction assay, as described above.
# The results of the experiments performed on isolated brain synaptosomes, mitochondria, and microsomes were statistically processed using the ‘MEDCALC’ program using the non-parametric Mann–Whitney method at significance levels of p < 0.05, p < 0.01, and p < 0.001. Statistical analyses with the SH-SY5Y cell line were conducted on GraphPad Prism software (version 8, GraphPad Software, La Jolla, CA, USA). The significance of the data was assessed using one-way analysis of variance (ANOVA), followed by Dunnet’s test for post hoc multiple comparisons, to evaluate statistical differences. Values of * p ≤ 0.05, ** p ≤ 0.01, and *** p ≤ 0.001 were considered statistically significant. Cytoprotecting data were normalized as a percentage of the H2O2-treated control (defined as 0% viability). Statistical analysis was performed to compare the different groups of compounds. Statistical significance was determined using the Holm–Sidak method, with alpha = 0.05. Each row was analyzed individually, without assuming a consistent SD.
# [6] = system: isolated brain mitochondria; assay: t-BuOOH-induced oxidative stress in brain mitochondria; conditions: 100 µM compound + t-BuOOH, compared to t-BuOOH alone
# [7] = 150 µM applied alone, vs untreated synaptosomes
SMILES,IC50 (SH-SY5Y cells [1]),increase in MDA formation in microsomes [2],decrease of MDA production in microsomes [3],preserved GSH levels in synaptosomes [4],viability at 100 µM [4],"decrease in synaptosomal viability by toxic agent alone [4, 7]","reduction in GSH levels by toxic agent alone [4, 7]",protective effect (neuroprotection) (SH-SY5Y cells [5]; 5 µM pre-treatment 1.5 h),protective effect (neuroprotection) (SH-SY5Y cells [5]; 10 µM pre-treatment 1.5 h),protective effect (neuroprotection) (SH-SY5Y cells [5]; 20 µM pre-treatment 1.5 h),protective effect (neuroprotection) (SH-SY5Y cells [5]; 50 µM pre-treatment 1.5 h),reduction of MDA production in mitochondria [6]
CCOC(=O)c1cc(-c2ccc(Br)cc2)n(C(Cc2c[nH]c3ccccc23)C(=O)N/N=C/c2c3ccccc3cc3ccccc23)c1C (centres unmarked) [compound 15],> 500 µM,40%,36%,70%,64%,,,,,,,
"NCCc1cc(O)c(O)cc1O [6-OHDA, 6-hydroxydopamine, reference compound]",,,,,,55%,50%,,,,,
CCOC(=O)c1cc(-c2ccc(Br)cc2)n(C(Cc2c[nH]c3ccccc23)C(=O)N/N=C/c2ccc(NC(C)=O)cc2)c1C (centres unmarked) [compound 9],> 500 µM,38%,26%,60%,78%,,,47%,52%,,,
CCOC(=O)c1cc(-c2ccc(Br)cc2)n(C(Cc2c[nH]c3ccccc23)C(=O)N/N=C/c2ccccc2O)c1C (centres unmarked) [compound 12],> 500 µM,35%,40%,80%,82%,,,48%,53%,50%,32%,
CCOC(=O)c1cc(-c2ccc(Br)cc2)n(C(Cc2c[nH]c3ccccc23)C(=O)N/N=C/c2ccc3ccccc3c2)c1C (centres unmarked) [compound 14],> 500 µM,39%,37%,70%,60%,,,33%,51%,,,
CCOC(=O)c1cc(-c2ccc(Br)cc2)n(C(Cc2c[nH]c3ccccc23)C(=O)N/N=C/c2cc(OC)c(O)c(OC)c2)c1C (centres unmarked) [compound 7],> 500 µM,29%,38%,70%,73%,,,,,,,
CCOC(=O)c1cc(-c2ccc(Br)cc2)n(C(Cc2c[nH]c3ccccc23)C(=O)N/N=C/c2ccc([N+](=O)[O-])o2)c1C (centres unmarked) [compound 11],264 µM,41%,35%,60%,69%,,,,,,,41%
